# Laboratory results published in PubChem BioAssay AID2060899 (Molecular Pharmacology Branch, DTP, NCI, 2025).
# pIC50: −log10 of the molar value.
# Test system: 565726-208-R1-J5-PDC complex spheroids, growth inhibition
# Test: Anticancer human tumor 565726-208-R1-J5-PDC patient-derived pancreatic adenocarcinoma cell line growth inhibition [RAS]
# Settings: for pIC50: curve of first compound; for viability, T/C: stronger effect = lower value
# In short: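 Tumour cells grown as complex spheroids with HUVEC endothelial cells and mesenchymal stem cells, treated with RAS pathway inhibitor combinations. Each agent spans half-log steps from near clinical Cmax, or 10 microM where Cmax is unknown.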
# [1] = second compound 0.000949 µM, first compound 0.00316 µM
# [2] = second compound 0.000949 µM, first compound 0.01 µM
# [3] = second compound 0.000949 µM, first compound 0.0316 µM
# [4] = second compound 0.000949 µM, first compound 0.1 µM
# [5] = second compound 0.000949 µM, first compound 0.316 µM
# [6] = second compound 0.000949 µM, first compound 1 µM
# [7] = second compound 0.003 µM, first compound 0.00316 µM
# [8] = second compound 0.003 µM, first compound 0.01 µM
# [9] = second compound 0.003 µM, first compound 0.0316 µM
# [10] = second compound 0.003 µM, first compound 0.1 µM
# [11] = second compound 0.003 µM, first compound 0.316 µM
# [12] = second compound 0.003 µM, first compound 1 µM
# [13] = second compound 0.00949 µM, first compound 0.00316 µM
# [14] = second compound 0.00949 µM, first compound 0.01 µM
# [15] = second compound 0.00949 µM, first compound 0.0316 µM
# [16] = second compound 0.00949 µM, first compound 0.1 µM
# [17] = second compound 0.00949 µM, first compound 0.316 µM
# [18] = second compound 0.00949 µM, first compound 1 µM
# [19] = second compound 0.03 µM, first compound 0.00316 µM
# [20] = second compound 0.03 µM, first compound 0.01 µM
# [21] = second compound 0.03 µM, first compound 0.0316 µM
# [22] = second compound 0.03 µM, first compound 0.1 µM
# [23] = second compound 0.03 µM, first compound 0.316 µM
# [24] = second compound 0.03 µM, first compound 1 µM
# [25] = second compound 0.0949 µM, first compound 0.00316 µM
# [26] = second compound 0.0949 µM, first compound 0.01 µM
# [27] = second compound 0.0949 µM, first compound 0.0316 µM
# [28] = second compound 0.0949 µM, first compound 0.1 µM
# [29] = second compound 0.0949 µM, first compound 0.316 µM
# [30] = second compound 0.0949 µM, first compound 1 µM
# [31] = second compound 0.3 µM, first compound 0.00316 µM
# [32] = second compound 0.3 µM, first compound 0.01 µM
# [33] = second compound 0.3 µM, first compound 0.0316 µM
# [34] = second compound 0.3 µM, first compound 0.1 µM
# [35] = second compound 0.3 µM, first compound 0.316 µM
# [36] = second compound 0.3 µM, first compound 1 µM
# 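Also: spheroids exposed to compounds for seven days before readout.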
# 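For viability, T/C in this document: 100% = DMSO vehicle control viability.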
smiles,measurement,setting,value
C=CC(=O)Nc1cc(Nc2nccc(-c3cn(C)c4ccccc34)n2)c(OC)cc1N(C)CCN(C)C + CCn1c(-c2cccnc2C(C)OC)c2c3cc(ccc31)N1CCOC(CC(NC(=O)C(C(C)C)N(C)C(=O)C3(F)CCN(C(=O)C#CC(C)(C)N(C)C)CC3)C(=O)N3CCCC(N3)C(=O)OCC(C)(C)C2)C1,pIC50,second compound 0.000949 µM,< 6.00
same,pIC50,second compound 0.003 µM,< 6.00
same,pIC50,second compound 0.00949 µM,< 6.00
same,pIC50,second compound 0.03 µM,< 6.00
same,pIC50,second compound 0.0949 µM,< 6.00
same,pIC50,second compound 0.3 µM,< 6.00
same,"viability, T/C",[1],98.1%
same,"viability, T/C",[2],87.7%
same,"viability, T/C",[3],93.8%
same,"viability, T/C",[4],79.7%
same,"viability, T/C",[5],78.8%
same,"viability, T/C",[6],65.2%
same,"viability, T/C",[7],93.4%
same,"viability, T/C",[8],91%
same,"viability, T/C",[9],89%
same,"viability, T/C",[10],77.1%
same,"viability, T/C",[11],76.4%
same,"viability, T/C",[12],57%
same,"viability, T/C",[13],99.1%
same,"viability, T/C",[14],91.6%
same,"viability, T/C",[15],83.3%
same,"viability, T/C",[16],73.3%
same,"viability, T/C",[17],78%
same,"viability, T/C",[18],55.8%
same,"viability, T/C",[19],105%
same,"viability, T/C",[20],107%
same,"viability, T/C",[21],94%
same,"viability, T/C",[22],81.9%
same,"viability, T/C",[23],83.3%
same,"viability, T/C",[24],62.2%
same,"viability, T/C",[25],96%
same,"viability, T/C",[26],87%
same,"viability, T/C",[27],92.2%
same,"viability, T/C",[28],78.8%
same,"viability, T/C",[29],81.6%
same,"viability, T/C",[30],60.2%
same,"viability, T/C",[31],88.1%
same,"viability, T/C",[32],78.3%
same,"viability, T/C",[33],86.5%
same,"viability, T/C",[34],72.7%
same,"viability, T/C",[35],70.8%
same,"viability, T/C",[36],55.7%
O=C(c1ccc(F)c(F)c1Nc1ccc(I)cc1F)N1CC(O)([C@@H]2CCCCN2)C1 + CCn1c(-c2cccnc2C(C)OC)c2c3cc(ccc31)N1CCOC(CC(NC(=O)C(C(C)C)N(C)C(=O)C3(F)CCN(C(=O)C#CC(C)(C)N(C)C)CC3)C(=O)N3CCCC(N3)C(=O)OCC(C)(C)C2)C1,pIC50,second compound 0.000949 µM,6.79
same,pIC50,second compound 0.003 µM,6.89
same,pIC50,second compound 0.00949 µM,6.80
same,pIC50,second compound 0.03 µM,6.74
same,pIC50,second compound 0.0949 µM,6.72
same,pIC50,second compound 0.3 µM,7.02
same,"viability, T/C",[1],95.3%
same,"viability, T/C",[2],83.2%
same,"viability, T/C",[3],76.8%
same,"viability, T/C",[4],55.4%
same,"viability, T/C",[5],40%
same,"viability, T/C",[6],17.7%
same,"viability, T/C",[7],96.4%
same,"viability, T/C",[8],80.4%
same,"viability, T/C",[9],71.8%
same,"viability, T/C",[10],53.2%
same,"viability, T/C",[11],36.8%
same,"viability, T/C",[12],19%
same,"viability, T/C",[13],93.7%
same,"viability, T/C",[14],87.3%
same,"viability, T/C",[15],67.7%
same,"viability, T/C",[16],57.1%
same,"viability, T/C",[17],43.2%
same,"viability, T/C",[18],19.9%
same,"viability, T/C",[19],82.7%
same,"viability, T/C",[20],82.3%
same,"viability, T/C",[21],77.9%
same,"viability, T/C",[22],59.5%
same,"viability, T/C",[23],40.6%
same,"viability, T/C",[24],19.4%
same,"viability, T/C",[25],82.8%
same,"viability, T/C",[26],78.8%
same,"viability, T/C",[27],72.9%
same,"viability, T/C",[28],57.4%
same,"viability, T/C",[29],43.8%
same,"viability, T/C",[30],19.8%
same,"viability, T/C",[31],82.6%
same,"viability, T/C",[32],71.2%
same,"viability, T/C",[33],67.5%
same,"viability, T/C",[34],45.9%
same,"viability, T/C",[35],34.4%
same,"viability, T/C",[36],13.6%
